This note sets out measurements from patent US20120225909A1, “INDAZOLE ANALOG” (priority 2009, published 2012).

pEC50: −log10 of the molar value. Like-named read-outs stand apart in the source and are kept apart here.

Data set [1] concerns the target T1, human β3-adrenergic receptor (Homo sapiens, UniProt P13945).
T1 construct: A full-length human β3 gene is obtained from a human genomic library (made by Clontech) using this as the probe; expressed in transfected cells; host or cells: CHO (Chinese hamster ovary) cells, pcDNA3
As to the kind of experiment: Test Case 1-B: human β3-adrenergic receptor agonist activity (cAMP-Screen, 96-well). The format is cell-based. The method, boiled down: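 CHO cells stably transfected with full-length human β3 gene, serum-starved 15 min, then exposed to serially diluted compound in Ham's F-12 with 100 mmol/L HEPES and 1 mmol/L IBMX (diluent concentrations) for 30 min. Cells lysed 30 min at 37 °C; cAMP quantified by cAMP-Screen immunoassay.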

For data set [2], the target named is T2, human β1-adrenergic receptor (Homo sapiens, UniProt P08588).
T2 construct: expressed in transfected cells; host or cells: CHO (Chinese hamster ovary) cells, pcDNA3
As to the kind of experiment: Test Case 2-B: human β1-adrenergic receptor agonist activity. Type of data set: cell-based. The note with it: read-out: β1 receptor I.A. On the procedure:
Measurement of Human β1-Adrenergic Receptor Agonist Activity
The human β1-adrenergic receptor agonist activity is measured by the same method as in Test Case 1-B using CHO (Chinese hamster ovary) cells transfected by a human β1 gene inserted in pcDNA3 (Invitrogen).

The test system of data set [3] is common marmoset isolated bladder smooth muscle. As to the kind of experiment: Test Case 7: common marmoset isolated bladder smooth muscle relaxation test. The note with it: KCl 40 mmol/L contracted marmoset bladder, papaverine 10^−4 mol/L relaxation = 100%. The method, then:
Common Marmoset Isolated Bladder Smooth Muscle Relaxation Test
After sacrificing common marmosets (Japan CLEA) by exsanguination, they are laparotomized and the urinary bladder is removed. […] The specimens are loaded with one gram of resting tension and stabilized for 30 or more minutes. After the resting tension of the specimen has stabilized, a final concentration of 40 mmol/L of KCl is added repeatedly, and it is confirmed that the contraction in response to KCl has basically become constant. […] Taking that relaxation response as 100%, the relaxation rate (%) at test compound concentrations of […] is calculated.

Data set [4] relates to Male C57BL/6 Cr mice. As to the kind of experiment: Test Case 10: mouse piloerection test. The format is in vivo. The note with it: 10 mg/kg i.v.
Data set [5] has as its target T3, human α1A-adrenergic receptor (Homo sapiens, UniProt P35348).
T3 sequence (P35348 1-466): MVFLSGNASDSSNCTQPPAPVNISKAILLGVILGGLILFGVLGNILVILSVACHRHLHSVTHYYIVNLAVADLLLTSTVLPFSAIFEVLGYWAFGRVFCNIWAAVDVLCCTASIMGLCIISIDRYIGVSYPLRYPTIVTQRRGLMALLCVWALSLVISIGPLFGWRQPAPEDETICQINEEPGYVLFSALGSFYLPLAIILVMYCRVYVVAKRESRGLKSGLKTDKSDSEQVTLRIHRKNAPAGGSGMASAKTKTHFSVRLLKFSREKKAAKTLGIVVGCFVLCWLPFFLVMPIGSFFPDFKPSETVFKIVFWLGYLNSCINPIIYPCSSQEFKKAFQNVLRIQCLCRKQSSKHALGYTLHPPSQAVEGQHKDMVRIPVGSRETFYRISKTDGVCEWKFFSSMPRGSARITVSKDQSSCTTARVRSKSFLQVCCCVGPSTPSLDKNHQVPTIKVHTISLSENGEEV
As to the kind of experiment: Test Case 4-A: human α1A-adrenergic receptor agonist activity (HEK293, Ca flux, Fura-2). Also noted: expressed in transfected cells; host or cells: HEK293 cells, pcDNA3.1. The format is cell-based. Summed up:
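Fura-2AM-loaded HEK293 cells transfected with human α1A were preincubated for 180 s. Compound (sample plate 10^−5 to 10^−12 M) was added after ~30 s of 340/380 nm excitation ratio reading (500 nm emission, 2-s intervals), followed by 270 s more reading. Ca flux is the peak height: maximum ratio after addition minus the pre-addition ratio.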

The mark [6] stands for this setting: 0.5 h; read-out: β3 receptor I.A.
The mark [7] stands for this setting: HEK293; read-out: α1A receptor I.A.

T1 sequence (P13945 whole entry): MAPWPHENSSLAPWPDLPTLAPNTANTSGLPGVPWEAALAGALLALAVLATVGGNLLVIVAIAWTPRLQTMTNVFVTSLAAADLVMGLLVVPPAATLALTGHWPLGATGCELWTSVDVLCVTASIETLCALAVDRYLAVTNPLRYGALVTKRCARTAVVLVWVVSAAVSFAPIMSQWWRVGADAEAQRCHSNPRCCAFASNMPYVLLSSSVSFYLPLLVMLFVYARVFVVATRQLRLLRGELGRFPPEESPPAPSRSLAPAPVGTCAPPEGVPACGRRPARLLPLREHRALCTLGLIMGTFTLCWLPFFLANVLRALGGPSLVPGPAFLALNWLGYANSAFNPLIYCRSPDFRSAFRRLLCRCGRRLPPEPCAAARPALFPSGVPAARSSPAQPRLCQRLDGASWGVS
T2 sequence (P08588 whole entry): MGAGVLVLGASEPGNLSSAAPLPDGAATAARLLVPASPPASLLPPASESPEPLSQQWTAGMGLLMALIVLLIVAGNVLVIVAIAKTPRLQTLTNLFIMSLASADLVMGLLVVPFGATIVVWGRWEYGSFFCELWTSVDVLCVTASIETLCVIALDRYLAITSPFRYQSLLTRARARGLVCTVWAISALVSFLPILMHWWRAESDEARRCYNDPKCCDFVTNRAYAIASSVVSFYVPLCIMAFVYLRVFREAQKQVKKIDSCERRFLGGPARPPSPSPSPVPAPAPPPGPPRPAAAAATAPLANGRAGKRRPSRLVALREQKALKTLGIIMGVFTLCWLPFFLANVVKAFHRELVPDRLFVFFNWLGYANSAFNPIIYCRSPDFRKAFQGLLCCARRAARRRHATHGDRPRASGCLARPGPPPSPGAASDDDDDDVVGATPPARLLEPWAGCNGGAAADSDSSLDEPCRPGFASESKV

For `Cc1n[nH]c2cc(OCCNC[C@H](O)c3cccc(NS(=O)(=O)C4CCC4)c3)ccc12` [ex3, (R)—N-(3-(1-hydroxy-2-(2-(3-methylindazol-6-yloxy)ethylamino)ethyl)phenyl)cyclobutanesulfonamide], the Emax in data set [1] (0.5 h, read-out: β3 receptor I.A.) was 105%; in data set [2] it was 4%; in data set [5] (HEK293, read-out: α1A receptor I.A.) it was 0%. The same molecule showed a pEC50 in data set [1] (Test Case 1-B; CHO cells, cAMP) of 7.77. Besides, the “relaxant activity (%) 10^−4M” value in data set [3] is 63.2%. Besides, in data set [3], the “relaxant activity (%) 10^−5M” value is 36.6%. In addition, the “number of experimental animals matching Score 0 (no piloerection)” value (“number … (no piloerection)” below) in data set [4] (n=4, observation time 5 min) was determined as 4; in data set [4] (n=4, observation time 15 min) it was 3; in data set [4] (n=4, observation time 30 min), 3; in data set [4] (n=4, observation time 60 min), 4. Further, the “number of experimental animals matching Score 0.5” value in data set [4] (n=4, observation time 15 min) is reported as 1; in data set [4] (n=4, observation time 30 min), 1.
As for `O=S(=O)(Nc1cccc([C@@H](O)CNCCOc2ccc3c(OC(F)F)n[nH]c3c2)c1)C1CC1` [ex4, (R)—N-(3-(2-(2-(3-(difluoromethoxy)-indazol-6-yloxy)ethylamino)-1-hydroxyethyl)phenyl)cyclopropanesulfonamide], the values for the Emax in data set [1] (setting [6]), in data set [2] and in data set [5] (setting [7]) were 77%, 2% and 0%, respectively. Moreover, in data set [1] (Test Case 1-B; CHO cells, cAMP), the pEC50 was 7.42. In addition, in data set [3], the “relaxant activity (%) 10^−4M” value was determined as 53.7%. In addition, in data set [3], the “relaxant activity (%) 10^−5M” value amounted to 30.1%. Moreover, the “number … (no piloerection)” value is 4 in data set [4] (n=4, observation time 5 min); 4 in data set [4] (n=4, observation time 15 min); 3 in data set [4] (n=4, observation time 30 min); 3 in data set [4] (n=4, observation time 60 min). The “number of experimental animals matching Score 0.5” value came to 1 in data set [4] (n=4, observation time 30 min) and 1 in data set [4] (n=4, observation time 60 min).
Turning to `Cc1n[nH]c2cc(OCCNC[C@H](O)c3cccc(NS(=O)(=O)c4ccccc4F)c3)ccc12` [ex235, (R)-2-fluoro-N-(3-(1-hydroxy-2-(2-(3-methylindazol-6-yloxy)ethylamino)ethyl)phenyl)benzenesulfonamide], the Emax in data set [1] (setting [6]) was 113%; in data set [2] it was 16%; in data set [5] (setting [7]), 0%. For the same molecule, the pEC50 in data set [1] (Test Case 1-B; CHO cells, cAMP) is 7.55. In addition, the “relaxant activity (%) 10^−4M” value in data set [3] is recorded as 55.3%. For the same molecule, the “relaxant activity (%) 10^−5M” value in data set [3] was 24.3%. Moreover, the “number … (no piloerection)” value came to 4 in data set [4] (n=4, observation time 5 min); 4 in data set [4] (n=4, observation time 15 min); 4 in data set [4] (n=4, observation time 30 min); 4 in data set [4] (n=4, observation time 60 min).

The term pEC50 denotes −log10 of the EC50, conventionally taken in molar units. A high value points to a low EC50.
